In patent publication US8802638B1, “Flavonoid treatment of glycogen synthase kinase-based disease” (University of South Florida, priority 2007, dated 2014):

Tests used:
Format in all cases: cell-based, murine
GSK-3α/β = experiment: Western blot of phosphorylated GSK-3α/β forms in SweAPP N2a cells; conditions: 20 μM
Protocol: Cultured cells or mouse brain were lysed in ice-cold lysis buffer described above, and an aliquot corresponding to 50 μg of total protein was electrophoretically separated using 12% Tris-HCl or 16.5% Tris-tricine gels. Electrophoresed proteins were then transferred to PVDF membranes, washed in dH2O, and blocked for 1 hr at ambient temperature in Tris-buffered saline (TBS; Bio-Rad) containing 5% (w/v) non-fat dry milk. After blocking, membranes were hybridized for 1 hr at ambient temperature with various primary antibodies. Membranes were then washed 3× for 5 min each in dH2O and incubated for 1 hr at ambient temperature with the appropriate HRP-conjugated secondary antibody (1:1,000). Antibodies were obtained against the amino-terminus and carboxyl-terminus of PS1 (Chemicon, Temecula, Calif.), amino-terminus and carboxyl-terminus of APP (22C11), actin (Roche, Basel, Switzerland), Aβ (6E10, 48G) (Signet Laboratories, Dedham, Mass.), phosphor-GSK3α (ser^21, clone BK202) (Upstate, Lake Placid, N.Y.), phospho-GSK3α/β (pTyr^279/216) (Sigma), phospho-GSK-3β (Ser^9) (Sigma) and total GSK-3α/β (Sigma). All antibodies were diluted in TBS containing 5% (w/v) of non-fat dry milk. Blots were developed using the luminol reagent (Pierce Biotechnology). Densitometric analysis was done as previously described using a FluorS Multiimager with Quantity One™ software (39). […] Antibodies used for Western blot included the APP-carboxyl-terminal antibody (1:50)), amino-terminal APP antibody (clone 22C11), or 6E10 (1:1,000), or actin antibody (1:1,500; as an internal reference control). γ-secretase activity was quantified in cell lysates using available kits based on secretase-specific peptides conjugated to fluorogenic reporter molecules.
The effect luteolin had on a variety of proteins related to and/or required for proper functioning of the γ-secretase complex was evaluated to establish the mechanism whereby luteolin modulates γ-secretase activity and subsequent Aβ generation. […]

PS1 = experiment: Western blot of PS1 C-terminal fragment phosphorylation in SweAPP N2a cells
Protocol: Cultured cells or mouse brain were lysed in ice-cold lysis buffer described above, and an aliquot corresponding to 50 μg of total protein was electrophoretically separated using 12% Tris-HCl or 16.5% Tris-tricine gels. Electrophoresed proteins were then transferred to PVDF membranes, washed in dH2O, and blocked for 1 hr at ambient temperature in Tris-buffered saline (TBS; Bio-Rad) containing 5% (w/v) non-fat dry milk. After blocking, membranes were hybridized for 1 hr at ambient temperature with various primary antibodies. Membranes were then washed 3× for 5 min each in dH2O and incubated for 1 hr at ambient temperature with the appropriate HRP-conjugated secondary antibody (1:1,000). All antibodies were diluted in TBS containing 5% (w/v) of non-fat dry milk. Blots were developed using the luminol reagent (Pierce Biotechnology). Densitometric analysis was done as previously described using a FluorS Multiimager with Quantity One™ software. Immunoprecipitation was performed for detection of sAPP-α, sAPP-β and Aβ by incubating 200 μg of total protein of each sample with various sequential combinations of 6E10 (1:100) and/or 22C11 (1:100) antibodies overnight with gentle rocking at 4° C., and 10 μL of 50% protein A-Sepharose beads were then added to the sample (1:10; Sigma) prior to gentle rocking for an additional 4 hrs at 4° C. Following washes with 1× cell lysis buffer, samples were subjected to Western blot as described above. Antibodies used for Western blot included the APP-carboxyl-terminal antibody (1:50)), amino-terminal APP antibody (clone 22C11), or 6E10 (1:1,000), or actin antibody (1:1,500; as an internal reference control). γ-secretase activity was quantified in cell lysates using available kits (R&D Systems, Minneapolis, Minn.), based on secretase-specific peptides conjugated to fluorogenic reporter molecules.
The two bands of highest molecular weight, approximately 20 kD and 18 kD in size, represent phosphorylated PS1 CTFs with a smaller 16 kD band representing the more common CTF product indicative of PS1 endoproteolytic cleavage.
To confirm that the 20 kD and 18 kD bands were phosphorylated PS1 isoforms, SweAPP N2a cells were treated with luteolin (20 μM) prior to lysis and cell lysates incubated with calf intestine alkaline phosphatase (CIAP) (Fermentas, Hanover, Md.), to dephosphorylate any potential phosphorylated proteins, to eliminate skewing of electrophorectic mobilities. Following 30 minutes of incubation, the 20 kD band is not evident in the CIAP treated lysates, seen in FIGS. 21(A) through 22, and the 18 kD band reduced while endogenous CTF, 16 kD, appears to accumulate. When compared to lysates incubated with only reaction buffer, phosphorylated residues decrease in a time dependent manner, shown by the 20 kD CTF:16 kD CTF. […] Luteolin affects PS1 phosphorylation and may indicate a means by which γ-secretase activity may be regulated.
To determine if this phenomenon was specifically attributable to luteolin treatment or more generally in regards to GSK-3 inhibition, SweAPP N2a cells were treated with a range of doses of the GSK-3 inhibitor SB-415286 (BIOMOL®, Plymouth Meeting, Pa.). […] FIG. 24(B). GSK-3α and β was successfully knocked-down (>70%, data not shown) with siRNA in SweAPP N2a cells, substantiating the role of GSK-3α in this luteolin-mediated PS1 processing. […]

SweAPP N2a cells = experiment: APP proteolysis (Aβ ELISA, IP, APP CTF Western blot) in SweAPP N2a cells
Protocol: Cultured cells or mouse brain were lysed in ice-cold lysis buffer described above, and an aliquot corresponding to 50 μg of total protein was electrophoretically separated using 12% Tris-HCl or 16.5% Tris-tricine gels. Electrophoresed proteins were then transferred to PVDF membranes, washed in dH2O, and blocked for 1 hr at ambient temperature in Tris-buffered saline (TBS; Bio-Rad) containing 5% (w/v) non-fat dry milk. After blocking, membranes were hybridized for 1 hr at ambient temperature with various primary antibodies. Membranes were then washed 3× for 5 min each in dH2O and incubated for 1 hr at ambient temperature with the appropriate HRP-conjugated secondary antibody (1:1,000). Antibodies were obtained against the amino-terminus and carboxyl-terminus of PS1 (Chemicon, Temecula, Calif.), amino-terminus and carboxyl-terminus of APP (22C11), actin (Roche, Basel, Switzerland), Aβ (6E10, 48G) (Signet Laboratories, Dedham, Mass.), phosphor-GSK3α (ser^21, clone BK202) (Upstate, Lake Placid, N.Y.), phospho-GSK3α/β (pTyr^279/216) (Sigma), phospho-GSK-3β (Ser^9) (Sigma) and total GSK-3α/β (Sigma). All antibodies were diluted in TBS containing 5% (w/v) of non-fat dry milk. Blots were developed using the luminol reagent (Pierce Biotechnology). Densitometric analysis was done as previously described using a FluorS Multiimager with Quantity One™ software (39). Immunoprecipitation was performed for detection of sAPP-α, sAPP-β and Aβ by incubating 200 μg of total protein of each sample with various sequential combinations of 6E10 (1:100) and/or 22C11 (1:100) antibodies overnight with gentle rocking at 4° C., and 10 μL of 50% protein A-Sepharose beads were then added to the sample (1:10; Sigma) prior to gentle rocking for an additional 4 hrs at 4° C. Following washes with 1× cell lysis buffer, samples were subjected to Western blot as described above. Antibodies used for Western blot included the APP-carboxyl-terminal antibody (1:50)), amino-terminal APP antibody (clone 22C11), or 6E10 (1:1,000), or actin antibody (1:1,500; as an internal reference control). γ-secretase activity was quantified in cell lysates using available kits based on secretase-specific peptides conjugated to fluorogenic reporter molecules.
SweAPP N2a cells and primary neuronal cells derived from Tg2576 mice were treated with varying doses of luteolin to examine luteolin's effect on APP proteolysis. Cellular extracts were collected and analyzed using immunoprecipitation (IP), Western blot, and ELISA. […] See FIGS. 1 through 2(B) and 5 through 6(B). SweAPP N2a and primary Tg2576-derived neuronal cells CTF profiles were analyzed following luteolin treatment to determine at which level luteolin impacts amyloid processing.

**Q.** `O=c1cc(-c2ccc(O)c(O)c2)oc2cc(O)cc(O)c12` [luteolin] was tested. Which “overall expression of GSK3-α or β” value (GSK-3α/β; Western blot) did it give?
**A.** no significant changes

**Q.** And the “selectivity of GSK-3α over GSK-3β inactivation” value (GSK-3α/β; time course)?
**A.** selectively inactivates GSK-3α isoforms over β isoforms

**Q.** What about the “PS1 CTF phosphorylation (phospho-PS1 CTF to PS1 CTF ratio)” value (PS1) of the same compound?
**A.** PS1 CTF phosphorylation increases

**Q.** What about the “full-length PS1 or PS1 NTF protein levels” value (PS1; range of doses, 4 hrs) of the same compound?
**A.** no significant effect

**Q.** What about the “accumulation of both α and β CTFs (increase over control)” value (SweAPP N2a cells; dose dependent, 12 hrs, Western blot densitometry, SweAPP N2a cells) of the same compound?
**A.** 2-3 fold

**Q.** And the “Aβ1-40, 42 peptide generation abrogated” value (SweAPP N2a cells; luteolin 20 μM, 12 hrs, SweAPP N2a cells)?
**A.** > 70%

**Q.** And the “Aβ1-40, 42 peptide generation abrogated” value (SweAPP N2a cells; luteolin 40 μM, 12 hrs, SweAPP N2a cells)?
**A.** > 85%

**Q.** What about the “Aβ1-40, 42 production” value (SweAPP N2a cells; result in words, ELISA/IP/Western blot) of the same compound?
**A.** effectively reduced Aβ1-40, 42 production in either cell line in a dose dependent manner
